3 compounds from patent US5219740A, “Retroviral gene transfer into diploid fibroblasts for gene therapy” (Fred Hutchinson Cancer Research Center, priority 1987, dated 1993) can be followed below.

The structures appear in SMILES notation.

The subject of test [1] is HDF 1-85. Kind of test: Drug concentration needed for complete cell killing. Type of test: cell-based, human. Particulars: Newborn HDF 1-85, scored after 10 days. The protocol:
(§1) Three drugs were tested for their ability to kill human diploid fibroblasts (HDF): the neomycin analogue G418, Hygromycin-B (Hygro), and Methotrexate (Mtx). Four HDF lines were isolated from skin biopsies of normal human donors: HDF 78-18, from a […] fetus; HDF 1-85, from newborn foreskin; HDF 79-81, from a person; and HDF 72-46, from a person. The four fibroblast lines were isolated using standard methods (Meth. Cell Biol. 219:255-276, 1980, hereby incorporated by reference) and were maintained in culture for 22 to 31 population doublings using Dulbecco-Vogt Modified Eagles Medium (D MEM) supplemented with 10% fetal bovine serum (FBS). NIH 3T3 immortalized mouse fibroblasts served as a control.
(§2) Cells were seeded at 10^4 per 3.5-cm dish in D MEM plus 10% FBS and drug, except for Mtx selection where 10% dialyzed FBS was used. Drug-resistant cells were scored after 10 days.

Test [2] deals with HDF 72-46. The description is as above. In kind it is cell-based, human. Particulars: Adult HDF 72-46, scored after 10 days. As to the method: as §1, §2
The test system of test [3] is HDF 78-18. The description is as above. Conditions: for Drug Concentrations Needed For Complete Cell Killing: Fetal HDF 78-18, scored after 10 days. Type of test: cell-based, human. The protocol:
as §1, §2

For test [4], the system named is HDF 79-81. The description is as above. Conditions: Adult HDF 79-81, scored after 10 days. In kind it is cell-based, human. The protocol: as §1, §2
For test [5], the system named is NIH 3T3. The description is as above. Type of test: cell-based, mouse. Conditions: for Drug Concentrations Needed For Complete Cell Killing: Mouse NIH 3T3, scored after 10 days. The protocol:
as §1, §2

Test [6] has as its system human diploid fibroblast cell lines. The experiment in a line: Drug killing, summary over HDF lines. In kind it is cell-based. As to the method:
as §1, §2

Test [7] has as its system SF03 cells. Kind of test: Adenosine killing of ADA-deficient fibroblasts. In kind it is cell-based, human. The source says:
(§3) Referring to FIG. 5, the ADA vector LNSAL was made by inserting an ADA cDNA (Valerio, D., et al., Gene 31:147-153, 1984) linked to a SV40 early region enhancer/promoter downstream of the neo gene in N2. Helper-free virus was made by introduction of LNSAL into PA317 amphotropic retrovirus-packaging cells (ATCC No. CRL 9078), as described in Mol. Cell. Biol. 6:2895-2902, 1986, hereby incorporated by reference. […] Using either G418 or adenosine, the expression of either neo and the ADA gene was assayed in LNSAL-infected cells.

Test [8] concerns normal human diploid fibroblasts. Kind of test: Adenosine effect on normal fibroblasts. Conditions: 2 mM. In kind it is cell-based.
Source text: as §3

As to `CN(Cc1cnc2nc(N)nc(N)c2n1)c1ccc(C(=O)N[C@@H](CCC(=O)O)C(=O)O)cc1` [Mtx, Methotrexate], the “Drug Concentrations Needed For Complete Cell Killing” value in test [1] (10% dialyzed FBS) is more than 1000 µM; in test [2] (10% dialyzed FBS), more than 1000 µM; in test [3] (10% dialyzed FBS), more than 1000 µM; in test [4] (10% dialyzed FBS) it was more than 10 µM; in test [5] (10% dialyzed FBS) it was 0.1 µM. The “colony formation at the highest concentration of Mtx used” value in test [3] (HDF 78-18, viable cells remained after 15 days of selection) is recorded as “did not form colonies”; in test [6] (all HDF lines with the exception of HDF 78-18), “formed colonies”. Moreover, in test [5] (NIH 3T3 cells), the “concentration that efficiently killed the cells” value is 10^-7 M. In addition, the “concentration to which the cell lines were resistant to killing” value in test [6] (human diploid fibroblast cell lines) is reported as > 10^-5 M; in test [6] (most human diploid fibroblast cell lines) it was “more than 10^-3 M”.
With `CNC1C(O)C(OC2C(N)CC(N)C(OC3OC(C(C)O)C(O)C(O)C3N)C2O)OCC1(C)O` (centres unmarked) [Vector G418], the “Drug Concentrations Needed For Complete Cell Killing” value in test [1] (weight of dry powder) stood at 500 µg/mL; in test [2] (weight of dry powder) it was 500 µg/mL; in test [3] (weight of dry powder), 500 µg/mL; in test [4] (weight of dry powder), 1000 µg/mL; in test [5] (weight of dry powder), 1000 µg/mL.
As for `Nc1ncnc2c1ncn2[C@@H]1O[C@H](CO)[C@@H](O)[C@H]1O` [adenosine], the “concentration that kills the cells” value in test [7] is 2 mM. Moreover, in test [8], the “effect on the cells” value is listed as “no effect”.
